Data taken from publication PMC5063900, “A phase 1 study of the safety, tolerability, pharmacokinetics, and pharmacodynamics of TAK-063, a selective PDE10A inhibitor” (Psychopharmacology, 2016).

Experiment: CNS Vital Signs (CNSVS) computerized cognition battery
Format: in vivo, human
Conditions: 2 h postdose, fasting
Experimental: Cognitive flexibility, attention, executive function, memory, reasoning, motor control, psychomotor speed, reaction time, and information processing speed were assessed predose and at 2 and 6 h following TAK-063 treatment using the CNSVS computerized cognition battery. The CNSVS cognition battery is a well-validated, sensitive measure and included the following tests: verbal and visual memory (VBM and VIM) tests, finger-tapping test, symbol digit coding test, Stroop test, shifting attention test, the nonverbal reasoning test, and the 4-part continuous performance test (Gualtieri and Johnson [2006]). Standardized domain scores for cognitive flexibility, composite memory, executive functioning, processing speed, psychomotor speed, reaction time, reasoning, sustained attention, verbal memory, visual memory, and working memory were reported. In all domains, a decrease in the standardized domain score is indicative of impairment.
All statistical analyses were generated using SAS Version 9.2 (SAS, Cary, NC, USA). The PK parameters were derived using non-compartmental methods with WinNonlin Enterprise Version 6.3 (Pharsight Corp., Mountain View, CA, USA). Frequency or descriptive statistics were used for summary of data. Where indicated, percent coefficient of variation was included in the summary of continuous data. All statistical tests were 2-tailed at α = 0.05 level for significance unless otherwise stated. A power model was used to evaluate dose proportionality by race for fasted subjects; in the event of no observed race effect, dose proportionality was assessed for all subjects. To evaluate the food effect, a paired t test was performed on T max and natural log-transformed C max, and AUCs. An ANCOVA model with baseline scores and race as covariates was used to assess the effects of TAK-063 on CNSVS domain scores.

## COc1cn(-c2ccc(-n3cccn3)cc2F)nc(-c2ccnn2-c2ccccc2)c1=O [TAK-063]
3 mg
  Cognitive flexibility domain score, Difference (TAK-063 LS mean - placebo LS mean, change from baseline): 1.3
  Composite memory domain score, Difference (TAK-063 LS mean - placebo LS mean, change from baseline): -7.9
  Executive functioning domain score, Difference (TAK-063 LS mean - placebo LS mean, change from baseline): 0.4
  Processing speed domain score, Difference (TAK-063 LS mean - placebo LS mean, change from baseline): 2.2
  Psychomotor speed domain score, Difference (TAK-063 LS mean - placebo LS mean, change from baseline): -1.5
  Reaction time domain score, Difference (TAK-063 LS mean - placebo LS mean, change from baseline): 4.1
  Reasoning domain score, Difference (TAK-063 LS mean - placebo LS mean, change from baseline): 5.7
  Sustained attention domain score, Difference (TAK-063 LS mean - placebo LS mean, change from baseline): 4.6
  Verbal memory domain score, Difference (TAK-063 LS mean - placebo LS mean, change from baseline): 0.9
  Visual memory domain score, Difference (TAK-063 LS mean - placebo LS mean, change from baseline): -10.3
  Working memory domain score, Difference (TAK-063 LS mean - placebo LS mean, change from baseline): 5.3
10 mg
  Cognitive flexibility domain score, Difference (TAK-063 LS mean - placebo LS mean, change from baseline): -3.1
  Composite memory domain score, Difference (TAK-063 LS mean - placebo LS mean, change from baseline): -5.2
  Executive functioning domain score, Difference (TAK-063 LS mean - placebo LS mean, change from baseline): -2.7
  Processing speed domain score, Difference (TAK-063 LS mean - placebo LS mean, change from baseline): 0.7
  Psychomotor speed domain score, Difference (TAK-063 LS mean - placebo LS mean, change from baseline): -8.5
  Reaction time domain score, Difference (TAK-063 LS mean - placebo LS mean, change from baseline): -2.3
  Reasoning domain score, Difference (TAK-063 LS mean - placebo LS mean, change from baseline): 10.8
  Sustained attention domain score, Difference (TAK-063 LS mean - placebo LS mean, change from baseline): 0.7
  Verbal memory domain score, Difference (TAK-063 LS mean - placebo LS mean, change from baseline): -4.0
  Visual memory domain score, Difference (TAK-063 LS mean - placebo LS mean, change from baseline): -3.3
  Working memory domain score, Difference (TAK-063 LS mean - placebo LS mean, change from baseline): 1.1
30 mg
  Cognitive flexibility domain score, Difference (TAK-063 LS mean - placebo LS mean, change from baseline): 0.2
  Composite memory domain score, Difference (TAK-063 LS mean - placebo LS mean, change from baseline): 2.8
  Executive functioning domain score, Difference (TAK-063 LS mean - placebo LS mean, change from baseline): 0.5
  Processing speed domain score, Difference (TAK-063 LS mean - placebo LS mean, change from baseline): 4.3
  Psychomotor speed domain score, Difference (TAK-063 LS mean - placebo LS mean, change from baseline): -1.7
  Reaction time domain score, Difference (TAK-063 LS mean - placebo LS mean, change from baseline): 3.1
  Reasoning domain score, Difference (TAK-063 LS mean - placebo LS mean, change from baseline): 6.4
  Sustained attention domain score, Difference (TAK-063 LS mean - placebo LS mean, change from baseline): 10.3
  Verbal memory domain score, Difference (TAK-063 LS mean - placebo LS mean, change from baseline): 12.4
  Visual memory domain score, Difference (TAK-063 LS mean - placebo LS mean, change from baseline): -5.2
  Working memory domain score, Difference (TAK-063 LS mean - placebo LS mean, change from baseline): 6.5
100 mg
  Cognitive flexibility domain score, Difference (TAK-063 LS mean - placebo LS mean, change from baseline): -20.2
  Composite memory domain score, Difference (TAK-063 LS mean - placebo LS mean, change from baseline): -24.1
  Executive functioning domain score, Difference (TAK-063 LS mean - placebo LS mean, change from baseline): -17.8
  Processing speed domain score, Difference (TAK-063 LS mean - placebo LS mean, change from baseline): -6.1
  Psychomotor speed domain score, Difference (TAK-063 LS mean - placebo LS mean, change from baseline): -15.2
  Reaction time domain score, Difference (TAK-063 LS mean - placebo LS mean, change from baseline): -15.6
  Reasoning domain score, Difference (TAK-063 LS mean - placebo LS mean, change from baseline): 4.6
  Sustained attention domain score, Difference (TAK-063 LS mean - placebo LS mean, change from baseline): -7.0
  Verbal memory domain score, Difference (TAK-063 LS mean - placebo LS mean, change from baseline): -24.0
  Visual memory domain score, Difference (TAK-063 LS mean - placebo LS mean, change from baseline): -15.4
  Working memory domain score, Difference (TAK-063 LS mean - placebo LS mean, change from baseline): -3.8
300 mg
  Cognitive flexibility domain score, Difference (TAK-063 LS mean - placebo LS mean, change from baseline): -30.9
  Composite memory domain score, Difference (TAK-063 LS mean - placebo LS mean, change from baseline): -26.9
  Executive functioning domain score, Difference (TAK-063 LS mean - placebo LS mean, change from baseline): -29.0
  Processing speed domain score, Difference (TAK-063 LS mean - placebo LS mean, change from baseline): -17.6
  Psychomotor speed domain score, Difference (TAK-063 LS mean - placebo LS mean, change from baseline): -18.0
  Reaction time domain score, Difference (TAK-063 LS mean - placebo LS mean, change from baseline): -10.3
  Reasoning domain score, Difference (TAK-063 LS mean - placebo LS mean, change from baseline): 0.5
  Sustained attention domain score, Difference (TAK-063 LS mean - placebo LS mean, change from baseline): -9.0
  Verbal memory domain score, Difference (TAK-063 LS mean - placebo LS mean, change from baseline): -26.7
  Visual memory domain score, Difference (TAK-063 LS mean - placebo LS mean, change from baseline): -17.2
  Working memory domain score, Difference (TAK-063 LS mean - placebo LS mean, change from baseline): -3.1
1000 mg
  Cognitive flexibility domain score, Difference (TAK-063 LS mean - placebo LS mean, change from baseline): -19.6
  Composite memory domain score, Difference (TAK-063 LS mean - placebo LS mean, change from baseline): -16.6
  Executive functioning domain score, Difference (TAK-063 LS mean - placebo LS mean, change from baseline): -16.6
  Processing speed domain score, Difference (TAK-063 LS mean - placebo LS mean, change from baseline): -17.9
  Psychomotor speed domain score, Difference (TAK-063 LS mean - placebo LS mean, change from baseline): -18.7
  Reaction time domain score, Difference (TAK-063 LS mean - placebo LS mean, change from baseline): -7.1
  Reasoning domain score, Difference (TAK-063 LS mean - placebo LS mean, change from baseline): -0.5
  Sustained attention domain score, Difference (TAK-063 LS mean - placebo LS mean, change from baseline): -5.0
  Verbal memory domain score, Difference (TAK-063 LS mean - placebo LS mean, change from baseline): -10.0
  Visual memory domain score, Difference (TAK-063 LS mean - placebo LS mean, change from baseline): -14.5
  Working memory domain score, Difference (TAK-063 LS mean - placebo LS mean, change from baseline): -2.5
